# Measured values: US20260000642A1 (Tay Therapeutics Limited, priority 2022, published 2026)
# Several values for one entry are separate records, joined by “and”; a condition that tells them apart may be missing. Equal values may be shown once.
# System: collagen-induced arthritis in Lewis rats
# Assay: Collagen-induced arthritis (CIA) model in rats: body weight, paw volume, clinical scores, clinical observations; for Detailed Clinical Scores, left forelimb: key of the grades not given here; for Detailed Clinical Scores, left hind limb: key of the grades not given here; for Detailed Clinical Scores, right forelimb: key of the grades not given here; for Detailed Clinical Scores, right hind limb: key of the grades not given here; for Detailed Clinical Scores, score: key of the grades not given here; for Overall clinical score: key of the grades not given here
# Settings: for Animal paw volume / Animal body weight percent change: Group 3 (CIA + Dexamethasone); for Animal paw volume: individual animals 1-8; for Animal paw volume percent change (%): individual animals, CIA + reference compound (Groups 3, 4); for Average animal body weight percent change: CIA + compound; for Detailed Clinical Scores, left forelimb / Detailed Clinical Scores, left hind limb / Detailed Clinical Scores, right forelimb / Detailed Clinical Scores, right hind limb / Detailed Clinical Scores, score: per animal ID; for Overall clinical score: individual CIA rats
# [1] = CIA rats, daily P.O. for 21 days
compound,measurement,setting,value
C[C@@H]1C[C@H]2[C@@H]3CCC4=CC(=O)C=C[C@]4(C)[C@@]3(F)[C@@H](O)C[C@]2(C)[C@@]1(O)C(=O)CO [dexamethasone],animals that gained weight by the end of the study (of 8),"CIA rats, day 21 vs day 0, daily P.O. for 21 days",4/8
same,diarrhea over the 21-day period,[1],did not have diarrhea
same,"increase in body weight, day 21 compared to day 0",[1],1.3%
same,Animal paw volume,"Day 0, L paw",1.35 mL and 1.31 mL and 1.39 mL and 1.33 mL and 1.30 mL (2×) and 1.34 mL and 1.36 mL
same,Animal paw volume percent change (%),"Day 0, L paw",0.00%
same,Animal paw volume,"Day 0, R paw",1.34 mL and 1.30 mL (2×) and 1.38 mL and 1.35 mL and 1.29 mL and 1.36 mL and 1.37 mL
same,Animal paw volume percent change (%),"Day 0, R paw",0.00%
same,Average animal body weight percent change,Day 0,0.00%
same,"Detailed Clinical Scores, left forelimb","Day 0, CIA",0
same,"Detailed Clinical Scores, left hind limb","Day 0, CIA",0
same,"Detailed Clinical Scores, right forelimb","Day 0, CIA",0
same,"Detailed Clinical Scores, right hind limb","Day 0, CIA",0
same,"Detailed Clinical Scores, score","Day 0, CIA",0
same,Overall clinical score,Day 0,0
same,Average animal body weight percent change,Day 1,−2.80%
same,Average animal body weight percent change,Day 2,−3.22%
same,Average animal body weight percent change,Day 3,−4.37%
same,Average animal body weight percent change,Day 4,−4.95%
same,Average animal body weight percent change,Day 5,−4.95%
same,Animal paw volume,"Day 6, L paw",1.31 mL and 1.29 mL (3×) and 1.34 mL and 1.28 mL
same,Animal paw volume percent change (%),"Day 6, L paw",−2.97% and −1.53% and −3.61% and −3.02% and −3.09% and −3.08% and −4.12% and −5.51%
same,Animal paw volume,"Day 6, R paw",1.30 mL (3×) and 1.28 mL (2×) and 1.34 mL and 1.27 mL
same,Animal paw volume percent change (%),"Day 6, R paw",−3.00% and −1.16% and 2.91% and −1.56% and 12.70% and −5.90% and −5.13%
same,Average animal body weight percent change,Day 6,−4.41%
same,"Detailed Clinical Scores, left forelimb","Day 6, CIA",0
same,"Detailed Clinical Scores, left hind limb","Day 6, CIA",0
same,"Detailed Clinical Scores, right forelimb","Day 6, CIA",0
same,"Detailed Clinical Scores, right hind limb","Day 6, CIA",0
same,"Detailed Clinical Scores, score","Day 6, CIA",0
same,Overall clinical score,Day 6,0
same,Average animal body weight percent change,Day 7,−3.35%
same,Average animal body weight percent change,Day 8,−3.90%
same,Average animal body weight percent change,Day 9,−1.84%
same,Average animal body weight percent change,Day 10,−2.30%
same,Average animal body weight percent change,Day 11,−1.24%
same,Animal paw volume,"Day 12, L paw",1.37 mL and 1.28 mL (2×) and 1.30 mL and 1.29 mL
same,Animal paw volume percent change (%),"Day 12, L paw",−10.41% and −7.66% and −1.44% and −3.40% and −1.54% and −6.54% and −3.00% and −5.51%
same,Animal paw volume,"Day 12, R paw",1.37 mL and 1.27 mL and 1.29 mL
same,Animal paw volume percent change (%),"Day 12, R paw",−6.74% and −3.09% and −0.73% and −7.43% and −1.56% and −9.27% and −7.01% and −5.86%
same,Average animal body weight percent change,Day 12,−1.18%
same,"Detailed Clinical Scores, left forelimb","Day 12, CIA",0
same,"Detailed Clinical Scores, left hind limb","Day 12, CIA",0
same,"Detailed Clinical Scores, right forelimb","Day 12, CIA",0
same,"Detailed Clinical Scores, right hind limb","Day 12, CIA",0
same,"Detailed Clinical Scores, score","Day 12, CIA",0
same,Overall clinical score,Day 12,0
same,Animal paw volume,"Day 13, L paw",1.40 mL and 1.29 mL (2×) and 1.30 mL and 1.31 mL
same,Animal paw volume percent change (%),"Day 13, L paw",−8.92% and −5.36% and 0.72% and −3.02% and 0.00% and −4.23% and −2.25% and −5.51%
same,Animal paw volume,"Day 13, R paw",1.27 mL and 1.38 mL and 1.28 mL and 1.31 mL and 1.29 mL
same,Animal paw volume percent change (%),"Day 13, R paw",−5.99% and −2.32% and 0.36% and −7.43% and −0.78% and −6.95% and −3.69% and −5.86%
same,Average animal body weight percent change,Day 13,−0.91%
same,"Detailed Clinical Scores, left forelimb","Day 13, CIA",0
same,"Detailed Clinical Scores, left hind limb","Day 13, CIA",0
same,"Detailed Clinical Scores, right forelimb","Day 13, CIA",0
same,"Detailed Clinical Scores, right hind limb","Day 13, CIA",0
same,"Detailed Clinical Scores, score","Day 13, CIA",0
same,Overall clinical score,Day 13,0
same,Animal paw volume,"Day 14, L paw",1.39 mL and 1.27 mL and 1.28 mL and 1.29 mL
same,Animal paw volume percent change (%),"Day 14, L paw",−8.18% and −5.36% and 0.00% and −4.53% and −1.54% and −5.00% and −3.75% and −8.46%
same,Animal paw volume,"Day 14, R paw",1.38 mL and 1.29 mL
same,Animal paw volume percent change (%),"Day 14, R paw",−5.62% and −2.70% and 0.00% and −8.92% and −2.33% and −7.72% and −5.17% and −8.06%
same,Average animal body weight percent change,Day 14,−1.24%
same,"Detailed Clinical Scores, left forelimb","Day 14, CIA",0
same,"Detailed Clinical Scores, left hind limb","Day 14, CIA",0
same,"Detailed Clinical Scores, right forelimb","Day 14, CIA",0
same,"Detailed Clinical Scores, right hind limb","Day 14, CIA",0
same,"Detailed Clinical Scores, score","Day 14, CIA",0
same,Overall clinical score,Day 14,0
same,Animal paw volume,"Day 15, L paw",1.36 mL and 1.28 mL and 1.33 mL and 1.27 mL
same,Animal paw volume percent change (%),"Day 15, L paw",−8.92% and −7.28% and −2.17%
same,Animal paw volume,"Day 15, R paw",1.36 mL and 1.27 mL (2×) and 1.32 mL
same,Animal paw volume percent change (%),"Day 15, R paw",−6.74% and −4.25% and −1.45%
same,Average animal body weight percent change,Day 15,0.43%
same,"Detailed Clinical Scores, left forelimb","Day 15, CIA",0
same,"Detailed Clinical Scores, left hind limb","Day 15, CIA",0
same,"Detailed Clinical Scores, right forelimb","Day 15, CIA",0
same,"Detailed Clinical Scores, right hind limb","Day 15, CIA",0
same,"Detailed Clinical Scores, score","Day 15, CIA",0
same,Overall clinical score,Day 15,0
same,Average animal body weight percent change,Day 16,−0.57%
same,Average animal body weight percent change,Day 17,0.62%
same,Animal paw volume,"Day 18, L paw",1.28 mL and 1.45 mL and 1.31 mL and 1.29 mL and 1.34 mL and 1.30 mL
same,Animal paw volume percent change (%),"Day 18, L paw",−5.20% and −6.51% and 4.33%
same,Animal paw volume,"Day 18, R paw",1.28 mL and 1.44 mL and 1.31 mL and 1.29 mL (2×) and 1.34 mL
same,Animal paw volume percent change (%),"Day 18, R paw",−4.49% and −4.63% and 4.36%
same,Average animal body weight percent change,Day 18,1.02%
same,"Detailed Clinical Scores, left forelimb","Day 18, CIA rats",0
same,"Detailed Clinical Scores, left hind limb","Day 18, CIA rats",0
same,"Detailed Clinical Scores, right forelimb","Day 18, CIA rats",0
same,"Detailed Clinical Scores, right hind limb","Day 18, CIA rats",0
same,"Detailed Clinical Scores, score","Day 18, CIA rats",0
same,Overall clinical score,Day 18,0
same,Animal paw volume,"Day 19, L paw",1.28 mL (2×) and 1.44 mL and 1.30 mL (2×) and 1.33 mL
same,Animal paw volume percent change (%),"Day 19, L paw",−5.20% and −6.90% and 3.61%
same,Animal paw volume,"Day 19, R paw",1.27 mL (2×) and 1.44 mL and 1.31 mL and 1.32 mL and 1.30 mL
same,Animal paw volume percent change (%),"Day 19, R paw",−5.24% and −6.18%
same,Average animal body weight percent change,Day 19,1.53%
same,"Detailed Clinical Scores, left forelimb","Day 19, CIA rats",0
same,"Detailed Clinical Scores, left hind limb","Day 19, CIA rats",0
same,"Detailed Clinical Scores, right forelimb","Day 19, CIA rats",0
same,"Detailed Clinical Scores, right hind limb","Day 19, CIA rats",0
same,"Detailed Clinical Scores, score","Day 19, CIA rats",0
same,Overall clinical score,Day 19,0
same,Average animal body weight percent change,Day 20,1.66%
same,Animal paw volume,"Day 21, L paw",1.43 mL and 1.31 mL (2×) and 1.30 mL (2×)
same,Animal paw volume percent change (%),"Day 21, L paw",−6.32% and −6.90%
same,Animal paw volume,"Day 21, R paw",1.43 mL and 1.31 mL and 1.30 mL (2×) and 1.32 mL
same,Animal paw volume percent change (%),"Day 21, R paw",−5.99% and −6.18%
same,Average animal body weight percent change,Day 21,1.30%
same,"Detailed Clinical Scores, left forelimb","Day 21, CIA rats",0
same,"Detailed Clinical Scores, left hind limb","Day 21, CIA rats",0
same,"Detailed Clinical Scores, right forelimb","Day 21, CIA rats",0
same,"Detailed Clinical Scores, right hind limb","Day 21, CIA rats",0
same,"Detailed Clinical Scores, score","Day 21, CIA rats",0
same,Overall clinical score,Day 21,0
same,Animal body weight percent change,"Day 0, individual animals",0.00%
same,Animal body weight percent change,"Day 1, individual animals",0.66% and −7.41% and −1.72% and −2.37% and −1.20% and −6.21%
same,Animal body weight percent change,"Day 2, individual animals",−0.66% and −6.79% and 1.15% and −1.78% and −3.01% and −8.07%
same,Animal body weight percent change,"Day 3, individual animals",−1.99% and −11.11% and 0.57% and −2.96% and −2.41% and −9.94%
same,Animal body weight percent change,"Day 4, individual animals",−2.65% and −9.26% and −2.30% and −5.33% and −6.02%
same,Animal body weight percent change,"Day 5, individual animals",−2.65% and −8.02% and −5.17% and −2.96% and −4.82%
same,Animal body weight percent change,"Day 6, individual animals",−2.65% and −6.17% and −1.72% and −4.73% and −6.63%
same,Animal body weight percent change,"Day 7, individual animals",−0.66% and −5.56% and 2.30% and −4.14% and −3.61%
same,Animal body weight percent change,"Day 15, individual animals",9.93% and −3.09% and 2.30% and 0.59% and −1.20% and −6.83% and 2.33% and −0.63%
same,Animal body weight percent change,"Day 16, individual animals",3.97% and −5.56% and 7.47% and −0.59% and −4.22% and −8.70% and 1.16% and 1.88%
same,Animal body weight percent change,"Day 17, individual animals",5.96% and −4.32% and 8.05% and −2.37% and 0.60% and −6.83% and −1.16% and 5.00%
same,Animal body weight percent change,"Day 18, individual animals",3.97% and −6.17% and 8.62% and −2.37% and 0.00% and −5.59% and 4.07% and 5.63%
same,Animal body weight percent change,"Day 19, individual animals",7.28% and −9.26% and 10.34% and 0.59% and 1.20% and −5.59% and 5.81% and 1.88%
same,Animal body weight percent change,"Day 20, individual animals",7.95% and −3.70% and 5.75% and 2.37% and 0.60% and −4.35% and 4.65% and 0.00%
same,Animal body weight percent change,"Day 21, individual animals",8.61% and −3.70% and 7.47% and 0.00% and −3.01% and −5.59% and 2.91% and 3.75%
